From US8138340B2, “Bicyclononene derivatives” (Actelion Pharmaceuticals Ltd., priority 2004, dated 2012)

These molecules were tested against T1, recombinant human renin (Homo sapiens, UniProt P00797) (assay: Primary renin inhibition assay: IC50 in buffer, 384 well MTP (AngI quantified by EIA)). Details: human tetradecapeptide substrate, assay buffer pH 7.4, 37° C. for 3 h.
T1 sequence (P00797 67-406): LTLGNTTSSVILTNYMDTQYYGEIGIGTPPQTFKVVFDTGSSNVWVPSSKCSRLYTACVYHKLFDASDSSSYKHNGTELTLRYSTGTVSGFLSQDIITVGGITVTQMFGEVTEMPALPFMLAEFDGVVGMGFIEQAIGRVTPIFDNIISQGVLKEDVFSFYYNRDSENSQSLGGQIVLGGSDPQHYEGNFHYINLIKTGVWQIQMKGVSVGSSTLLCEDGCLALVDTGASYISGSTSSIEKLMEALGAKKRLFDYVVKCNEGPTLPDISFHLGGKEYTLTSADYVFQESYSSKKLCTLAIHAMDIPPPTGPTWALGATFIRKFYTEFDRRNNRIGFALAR
Assay type: biochemical
Description: 1. Enzyme Immuno Assay (EIA) to Estimate AngI Accumulation and Renin Inhibition
1.1 Preparation of AngI-BSA Conjugate
1.3 mg (1 μmol) of AngI [1-10 (Bachem, H-1680)] and 17 mg (0.26 μmol) of BSA (Fluka, 05475) were dissolved in 4 mL of 0.1M phosphate buffer, pH 7.4, after which 2 mL of a 1:100 dilution of glutaraldehyde in H2O (Sigma G-5882) was added dropwise. The mixture was incubated overnight at 4° C., then dialyzed against 2 liters of 0.9% NaCl, twice for 4 h at rt, followed by dialysis against 2 liters of PBS 1× overnight at rt. The solution was then filtered with a Syringe filter, 0.45 μm (Nalgene, Cat. No. 194-2545). The conjugate can be stored in polypropylene tubes in 0.05% sodium azide at 4° C. for at least 12 months.
1.2 Preparation of BSA-AngI Coated MTP
Microtiter plates (MPT384, MaxiSorp™, Nunc) were incubated overnight at 4° C. with 80 μl of AngI (1-10)/BSA conjugate, diluted 1:100'000 in PBS 1× in a teflon beaker (exact dilution dependent on batch of conjugate), emptied, filled with 90 μl of blocking solution [0.5% BSA (Sigma A-2153) in PBS 1×, 0.02% NaN3], and incubated for at least 2 h at rt, or overnight at 4° C. 96 well MTP (MaxiSorp™, Nunc) were coated with […] conjugate and blocked with 250 μl blocking solution as above, except that the blocking solution contained 3% BSA. The plates can be stored in blocking solution at 4° C. for 1 month.
1.3 AngI-EIA in 384 well MTP
The AngI (1-10)/BSA coated MTP were washed 3 times with wash buffer (PBS 1×, 0.01% Tween 20) and filled with 75 μl of primary antibody solution (anti-AngI antiserum, pre-diluted 1:10 in horse serum), diluted to a final concentration of 1:100'000 in assay buffer (PBS 1×, 1 mM EDTA, 0.1% BSA, pH 7.4). 5 μl of the renin reaction (or standards in assay buffer) (see below) were added to the primary antibody solution and the plates were incubated overnight at 4° C. After the incubation the plates were washed 3 times with wash buffer and incubated with secondary antibody [anti-rabbit IgG, linked to horseradish peroxidase (Amersham Bioscience, NA 934V), diluted 1:2'000 in wash buffer] for 2 h at rt. The plates were washed 3 times with wash buffer and then incubated for 1 h at rt with substrate solution [1.89 mM ABTS (2.2′-azino-di-(3-ethyl-benzthiazolinsulfonate)] (Roche Diagnostics, 102 946) and 2.36 mM H2O2 [30%, (Fluka, 95300] in substrate buffer (0.1M sodium acetate, 0.05M sodium dihydrogen phosphate, pH 4.2). The OD of the plate was read at 405 nm in a microplate reader (FLUOStar Optima from BMG). The production of AngI during the renin reaction was quantified by comparing the OD of the sample with the OD of a standard curve of AngI(1-10), measured in parallel.
2. Primary Renin Inhibition Assay: IC50 in Buffer, 384 well MTP
The renin assay was adapted from an assay described before (Fischli W. et al., Hypertension, 1991, 18:22-31) and consists of two steps: in the first step, recombinant human renin is incubated with its substrate (commercial human tetradecapeptide renin substrate) to create the product Angiotensin I (AngI). In the second step, the accumulated AngI is measured by an immunological assay (enzyme immuno assay, EIA). The detailed description of this assay is found below. The EIA is very sensitive and well suited for renin activity measurements in buffer or in plasma. Due to the low concentration of renin used in this assay (2 fmol per assay tube or 10 pM) it is possible to measure inhibitor affinities in this primary assay down to low pM concentration.
Recombinant human renin (3 pg/μl) in assay buffer (PBS 1×, 1 mM EDTA, 0.1% BSA, pH 7.4), human tetradecapeptide (1-14) substrate (Bachem, M-1120) [5 μM in 10 mM HCl], hydroxyquinoline sulfate (Fluka, 55100) [30 mM in H2O] and assay buffer were premixed at 4° C. at a ratio of 100:30:10:145. 47.5 μl per well of this premix was transferred into polypropylene plates (MTP384, Nunc). […]

Molecule	IC50 [nM]
O=C(C1=C(c2nc(CCCOc3cc(C(F)(F)F)ccc3Cl)cs2)C[C@@H]2CNC[C@H]1N2)N(Cc1cccc(Cl)c1Cl)C1CC1 (racemic) [Example 2, (rac.)-(1R*, 5S*)-7-{4-[3-(2-Chloro-5-trifluoromethylphenoxy)propyl]thiazol-2-yl}-3,9-diazabicyclo[3.3.1]non-6-ene-6-carboxylic acid cyclopropyl-(2,3-dichlorobenzyl)amide]	94
Cc1ccc(F)c(OCCOc2ncc(C3=C(C(=O)N(Cc4cccc(Cl)c4Cl)C4CC4)[C@H]4CNC[C@@H](C3)N4)s2)c1Cl (racemic) [Example 7, (rac.)-(1R*, 5S*)-7-{2-[2-(2-Chloro-6-fluoro-3-methylphenoxy)ethoxy]thiazol-5-yl}-3,9-diazabicyclo[3.3.1]non-6-ene-6-carboxylic acid cyclopropyl-(2,3-dichlorobenzyl)-amide]	2.9
Cc1ccc(F)c(OCCCc2coc(C3=C(C(=O)N(Cc4cccc(Cl)c4Cl)C4CC4)[C@H]4CNC[C@@H](C3)N4)n2)c1Cl (racemic) [Example 12, (rac.)-(1R*, 5S*)-7-{4-[3-(2-Chloro-6-fluoro-3-methylphenoxy)propyl]oxazol-2-yl}-3,9-diazabicyclo[3.3.1]non-6-ene-6-carboxylic acid cyclopropyl-(2,3-dichlorobenzyl)-amide]	46
COc1cccc(CN(C(=O)C2=C(c3cnc(CCCOc4c(Cl)cc(C)cc4Cl)s3)C[C@@H]3CNC[C@H]2N3)C2CC2)c1C (racemic) [Example 21, (rac.)-(1R*, 5S*)-7-{2-[3-(2,6-Dichloro-4-methylphenoxy)propyl]thiazol-5-yl}-3,9-diazabicyclo[3.3.1]non-6-ene-6-carboxylic acid cyclopropyl-(3-methoxy-2-methylbenzyl)amide]	4.4
COc1cccc(CN(C(=O)C2=C(c3cnc(OCCOc4c(Cl)cc(C)cc4Cl)s3)C[C@@H]3CNC[C@H]2N3)C2CC2)c1C (racemic) [Example 35, (rac.)-(1R*, 5S*)-7-{2-[2-(2,6-Dichloro-4-methylphenoxy)ethoxy]thiazol-5-yl}-3,9-diazabicyclo[3.3.1]non-6-ene-6-carboxylic acid cyclopropyl-(3-methoxy-2-methylbenzyl)amide]	1.3
Cc1cc(Cl)c(OCCOc2ncc(C3=C(C(=O)N(Cc4cccc(F)c4F)C4CC4)[C@H]4CNC[C@@H](C3)N4)s2)c(Cl)c1 (racemic) [Example 45, (rac.)-(1R*, 5S*)-7-{2-[2-(2,6-Dichloro-4-methylphenoxy)ethoxy]thiazol-5-yl}-3,9-diazabicyclo[3.3.1]non-6-ene-6-carboxylic acid cyclopropyl-(2,3-difluorobenzyl)amide]	15
Cc1cc(Cl)c(OCCOc2ncc(C3=C(C(=O)N(Cc4cccc(Cl)c4C)C4CC4)[C@H]4CNC[C@@H](C3)N4)s2)c(Cl)c1 (racemic) [Example 52, (rac.)-(1R*, 5S*)-7-{2-[2-(2,6-Dichloro-4-methylphenoxy)ethoxy]thiazol-5-yl}-3,9-diazabicyclo[3.3.1]non-6-ene-6-carboxylic acid (3-chloro-2-methylbenzyl)cyclopropyl-amide]	1.1
(rac.)-(1R*, 5S*)-7-{4-[3-(3-Chloro-2,6-difluorophenoxy)propyl]thiazol-2-yl}-3,9-diazabicyclo[3.3.1]non-6-ene-6-carboxylic acid cyclopropyl-(2,3-dichloro-benzyl)amide [Example 3]	16
(rac.)-(1R*, 5S*)-7-{5-[2-(4-Chloro-3,5-dimethylphenoxy)ethyl]-4-methylthiazol-2-yl}-3,9-diazabicyclo[3.3.1]non-6-ene-6-carboxylic acid cyclopropyl-(3-methoxy-2-methylbenzyl)amide [Example 1]	57
